The assay concerns B6C3F1 mice, Lewis lung carcinoma iv, survival T/C. Nature of the assay: NCI In Vivo Anticancer Drug Screen. Data for tumor model Lewis Lung Carcinoma (intravenous) in B6C3F1 mice. The conditions noted are these: endpoint: median survival time, schedule: Q01DX009 (ip), higher = longer survival. The method, boiled down:
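Mice carrying transplanted tumors received test compound; survival in the treated group was divided by that of the vehicle-treated control group to give the T/C value.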

[1] abbreviates: dose: 1.56 mg/kg/injection, vehicle: saline.
[2] abbreviates: dose: 3.12 mg/kg/injection, vehicle: saline.
[3] abbreviates: dose: 6.25 mg/kg/injection, vehicle: saline.
Setting [4] is: dose: 12.5 mg/kg/injection, vehicle: saline.
Where [5] appears, read: dose: 25.0 mg/kg/injection, vehicle: saline.
Where [6] appears, read: dose: 50.0 mg/kg/injection, vehicle: saline.
Where [7] appears, read: dose: 100.0 mg/kg/injection, vehicle: saline.
[8] abbreviates: dose: 200.0 mg/kg/injection, vehicle: saline.
[9] abbreviates: dose: 0.78 mg/kg/injection, vehicle: saline.
Where [10] appears, read: dose: 25.0 mg/kg/injection, vehicle: water.
Where [11] appears, read: dose: 0.06 mg/kg/injection, vehicle: saline.
Setting [12] is: dose: 0.12 mg/kg/injection, vehicle: saline.
Setting [13] is: dose: 0.25 mg/kg/injection, vehicle: saline.
The mark [14] stands for this setting: dose: 6.25 mg/kg/injection, vehicle: water.

“And” between values parts separate entries of the source, which are not always exact repeats. Identical values can stand only once. Toxic doses and inconclusive results are not listed.

As for `CCN(CC)CC[n+]1ccc2c(C)c3[nH]c4ccc(O)cc4c3c(C)c2c1`, the T/C is, setting by setting: under setting [1], 95 % of control; (dose: 1.56 mg/kg/injection, vehicle: suspension in saline) 106 % of control; under setting [2], 100 % of control; (dose: 3.12 mg/kg/injection, vehicle: suspension in saline) 100 % of control; under setting [3], 106 % of control; (dose: 6.25 mg/kg/injection, vehicle: suspension in saline) 116 % of control. Moreover, the T/C under setting [4] was 98 % of control.

`O=C(NO)c1ccc(O)c(O)c1`: the T/C is, setting by setting: under setting [5], 100 % of control; under setting [6], 98 % of control; (dose: 50.0 mg/kg/injection, vehicle: suspension in saline) 98 % of control; under setting [7], 101 % of control; (dose: 100.0 mg/kg/injection, vehicle: suspension in saline) 110 % of control; under setting [8], 100 % of control. The T/C by setting is: (dose: 200.0 mg/kg/injection, vehicle: suspension in saline) 118 % of control; (dose: 400.0 mg/kg/injection, vehicle: saline) 158 % of control; (dose: 400.0 mg/kg/injection, vehicle: suspension in saline) 124 % of control.

Regarding `C=CCCC(=O)CCCC(=O)O[C@@H]1[C@@H]2[C@H](CC1(C)C)[C@H](O)[C@@]13O[C@@H]1[C@H](O)[C@@]1(CO1)[C@@]23C`, the T/C is, setting by setting: (dose: 3.12 micrograms/kg/injection, vehicle: Klucel (hydroxypropylcellulose) (HPC)) 113 % of control; (dose: 6.25 micrograms/kg/injection, vehicle: Klucel (hydroxypropylcellulose) (HPC)) 98 % of control; (dose: 12.5 micrograms/kg/injection, vehicle: Klucel (hydroxypropylcellulose) (HPC)) 97 % of control; (dose: 25.0 micrograms/kg/injection, vehicle: Klucel (hydroxypropylcellulose) (HPC)) 94 % of control; (dose: 50.0 micrograms/kg/injection, vehicle: Klucel (hydroxypropylcellulose) (HPC)) 110 % of control.

Consider `NC(=O)c1csc(C2OC(CO)C(O)C2O)n1` (stereo unspecified), for which the T/C is 94 % of control under setting [9]; 109 % of control under setting [1]; 108 % of control under setting [2]; 119 % of control under setting [3]; 155 % of control and 158 % of control (dose: 12.0 mg/kg/injection, vehicle: saline); 284 % of control under setting [4]. In addition, the T/C was 240 % of control and 348 % of control and 355 % of control under setting [10]; 240 % of control and 348 % of control and 355 % of control (dose: 50.0 mg/kg/injection, vehicle: water); 295 % of control (dose: 62.5 mg/kg/injection, vehicle: water); 240 % of control and 348 % of control and 355 % of control (dose: 100.0 mg/kg/injection, vehicle: water); 295 % of control (dose: 125.0 mg/kg/injection, vehicle: water); 240 % of control and 348 % of control and 355 % of control (dose: 200.0 mg/kg/injection, vehicle: water). Further, the T/C is 295 % of control (dose: 250.0 mg/kg/injection, vehicle: water); 240 % of control and 348 % of control and 355 % of control (dose: 400.0 mg/kg/injection, vehicle: water); 295 % of control (dose: 500.0 mg/kg/injection, vehicle: water); 240 % of control (dose: 800.0 mg/kg/injection, vehicle: water); 295 % of control (dose: 1000.0 mg/kg/injection, vehicle: water).

Regarding `NC(Cn1ccc(=O)c(O)c1)C(=O)O` (stereo unspecified), the T/C was 94 % of control under setting [4]; 98 % of control under setting [5]; 102 % of control under setting [6]; 94 % of control under setting [7]; 94 % of control under setting [8].

`CC1=CC(=Nc2ccc(N(CCCl)CCCl)cc2)C=C(C)C1=O`: the T/C was 109 % of control (dose: 12.5 mg/kg/injection, vehicle: saline with Tween-80) and 116 % of control (dose: 25.0 mg/kg/injection, vehicle: saline with Tween-80).

Regarding `CC(=O)[C@]1(O)Cc2c(O)c3c(c(O)c2[C@@H](OC2CC(N)C(O)C(C)O2)C1)C(=O)c1c(O)cccc1C3=O` (stereo partly specified), the T/C is 107 % of control (dose: 0.03 mg/kg/injection, vehicle: saline); 96 % of control under setting [11]; 108 % of control under setting [12]; 117 % of control under setting [13].

As for `O=NN(CCCl)C(=O)NC1CCC(=O)NC1=O` (stereo unspecified), the T/C by setting is: (dose: 1.0 mg/kg/injection, vehicle: saline with Tween-80) 113 % of control; (dose: 4.0 mg/kg/injection, vehicle: saline with Tween-80) 225 % of control; (dose: 8.0 mg/kg/injection, vehicle: saline with Tween-80) 312 % of control; (dose: 16.0 mg/kg/injection, vehicle: saline with Tween-80) 93 % of control.

For the compound `Nc1nc(N)c2c(ccc3c2ccn3Cc2cccc([N+](=O)[O-])c2)n1`, the T/C is 98 % of control (dose: 1.56 mg/kg/injection, vehicle: saline with Tween-80); 102 % of control (dose: 3.12 mg/kg/injection, vehicle: saline with Tween-80); 103 % of control (dose: 6.25 mg/kg/injection, vehicle: saline with Tween-80).

For the compound `CN1N=C(N)c2cn(C3OC(COP(=O)(O)O)C(O)C3O)c3ncnc1c23` (stereo unspecified), the T/C under setting [14] was 98 % of control.

As to `Nc1n[n+](-c2ccccc2)no1`, the T/C is 108 % of control (dose: 3.13 mg/kg/injection, vehicle: water); 100 % of control under setting [14]; 113 % of control (dose: 12.5 mg/kg/injection, vehicle: water); 114 % of control under setting [10].

Regarding `Oc1c(Cl)cc(C(c2cc(Cl)c(O)c(Cl)c2)C(c2cc(Cl)c(O)c(Cl)c2)c2cc(Cl)c(O)c(Cl)c2)cc1Cl`, the T/C runs as follows: (dose: 12.5 mg/kg/injection, vehicle: Klucel (hydroxypropylcellulose) (HPC)) 98 % of control; (dose: 25.0 mg/kg/injection, vehicle: Klucel (hydroxypropylcellulose) (HPC)) 101 % of control; (dose: 50.0 mg/kg/injection, vehicle: Klucel (hydroxypropylcellulose) (HPC)) 104 % of control; (dose: 100.0 mg/kg/injection, vehicle: Klucel (hydroxypropylcellulose) (HPC)) 103 % of control; (dose: 200.0 mg/kg/injection, vehicle: Klucel (hydroxypropylcellulose) (HPC)) 106 % of control.

In the case of `COc1cc2c(c(OC)c1OC)-c1ccc(OC)c(=O)cc1[C@@H](NC(C)=O)CC2`, the T/C under setting [11] was 108 % of control; the T/C under setting [12] was 92 % of control; the T/C (dose: 0.19 mg/kg/injection, vehicle: saline) is 99 % of control; the T/C under setting [13] was 100 % of control; the T/C (dose: 0.39 mg/kg/injection, vehicle: saline) is 104 % of control; the T/C (dose: 0.5 mg/kg/injection, vehicle: saline) was 93 % of control. For the same compound, the T/C under setting [9] is 104 % of control; the T/C (dose: 1.0 mg/kg/injection, vehicle: saline) was 100 % of control; the T/C (dose: 2.0 mg/kg/injection, vehicle: saline) is 112 % of control.

For `C#CCNC1=C(C)C(=O)C2=C(C1=O)[C@H](COC(N)=O)[C@]1(OC)[C@@H]3N[C@@H]3CN21`, the T/C (dose: 6.25 mg/kg/injection, vehicle: distilled water + Tween-80) was 102 % of control.

Values taken from PubChem BioAssay AID276 (DTP/NCI, 2004).
